Consider 19 molecules from patent US20240025919A1, “AZA-TETRACYCLIC OXAZEPINE COMPOUNDS AND USES THEREOF” (Genentech, Inc., priority 2022, published 2024).

What is called IC50 is the concentration that inhibits the measured activity by half.

In one assay the target is KRAS G12D (Homo sapiens (Human), UniProt P01116, G12D). In words: KRAS G12D LoEnz Biochemical Assay, BODIPY-GDP Exchange TR-FRET (SOS1-mediated nucleotide exchange). The conditions noted are these: read-out: KRas (G12D) GDP HTRF IC50. A general note: TR-FRET usually uses a lanthanide donor and a delayed reading to cut background.
KRAS G12D, sequence (P01116-2 other isoform, or with tags, fused parts or gaps G12D): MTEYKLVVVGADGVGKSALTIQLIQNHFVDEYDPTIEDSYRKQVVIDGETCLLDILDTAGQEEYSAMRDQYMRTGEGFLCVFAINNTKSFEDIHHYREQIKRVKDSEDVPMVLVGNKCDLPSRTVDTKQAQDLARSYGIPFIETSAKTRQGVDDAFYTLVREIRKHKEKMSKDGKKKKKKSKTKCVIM
The target in a further assay is KRAS WT (Homo sapiens (Human), UniProt P01116). In words: KRAS WT Biochemical Assay, BODIPY-GDP Exchange TR-FRET (Example 502; 0.06 nM KRAS WT, 15 nM GDP, 300 nM SOS1, 120-minute incubation). The conditions noted are these: read-out: KRas HTRF IC50. The protocol: Example 502: KRAS WT Biochemical Assay, BODIPY-GDP Exchange TR-FRET. Biochemical compound potencies are assessed by evaluating inhibition of SOS1-mediated nucleotide exchange in KRAS WT. In this assay, the SOS1-promoted exchange of fluorescently-labeled GDP (BOPIDY-GDP) is monitored by time-resolved fluorescence resonance energy transfer (TR-FRET). Compounds solubilized in DMSO are dispensed as concentration series into 384-well white assay plates. A preformed complex of 0.06 nM biotin-tagged recombinant human KRAS WT, 15 nM GDP and 0.06 nM terbium-labeled streptavidin (CisBIO) prepared in 10 uL/well assay buffer (20 mM HEPES, pH 7.5, 50 mM NaCl, 10 mM MgCl2, 0.01% Tween-20 and 1 mM dithiothreitol) is added and allowed to incubate for 10-minutes at room temperature. The reaction is initiated with the addition of 5 uL 300 nM recombinant human SOS1 and 300 nM BODIPY-GDP in assay buffer. After a 120-minute incubation, the fluorescence is measured with excitation at 337 nm and emission at 490 and 520 nm. The TR-FRET ratio is determined as the fluorescence at 520 nm divided by the fluorescence at 490 nm multiplied by 10,000. The results are normalized to percent inhibition based on control samples: DMSO (0% inhibition) and control compound at a concentration that inhibits completely (100% inhibition). The normalized TR-FRET results are plotted against compound concentration, and the data are fit to a 4-parameter Hill equation to determine the IC50 values.
KRAS WT, sequence (P01116-2 other isoform, or with tags, fused parts or gaps): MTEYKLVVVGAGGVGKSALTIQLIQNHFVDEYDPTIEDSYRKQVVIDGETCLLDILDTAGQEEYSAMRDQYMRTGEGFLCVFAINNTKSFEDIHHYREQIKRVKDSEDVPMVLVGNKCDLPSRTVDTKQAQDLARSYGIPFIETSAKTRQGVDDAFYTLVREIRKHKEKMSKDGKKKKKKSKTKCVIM

As for `Cc1c(F)c(N)cc(-c2nc3c4c(nc(OC[C@@H]5CC[C@@H]6CC(C(=O)N(C)C)CCN65)nc4c2F)N2C[C@H]4CC[C@H](N4)[C@H]2[C@H](C)O3)c1C(F)(F)F` (single isomer, unassigned) [133 (isomer 3)], the IC50 at KRAS G12D was 0.14 nM; at KRAS WT, 23.3 nM.
`Cc1c(F)c(N)cc(-c2nc3c4c(nc(OC[C@@H]5CC[C@H]6C[C@H](C(=O)N(C)C)CCN56)nc4c2F)N2C[C@H]4CC[C@H](N4)[C@H]2[C@H](C)O3)c1C(F)(F)F` (single isomer, unassigned) [133 (isomer 4)]: the IC50 on KRAS G12D was found to be 0.08 nM; at KRAS WT it was 2.3 nM.
`Cc1c(F)c(N)cc(-c2nc3c4c(nc(OC[C@]56COC[C@H]5CCN6C)nc4c2F)N2C[C@H]4CC[C@H](N4)[C@H]2[C@H](C)O3)c1C(F)(F)F` (single isomer, unassigned) [134 (isomer 1)]: the IC50 is 0.19 nM on KRAS G12D and 39.4 nM at KRAS WT.
As for `Cc1c(F)c(N)cc(-c2nc3c4c(nc(OC[C@]56COC[C@@H]5CCN6C)nc4c2F)N2C[C@H]4CC[C@H](N4)[C@H]2[C@H](C)O3)c1C(F)(F)F` (single isomer, unassigned) [134 (isomer 2)], the values for the IC50 at KRAS G12D and on KRAS WT were 0.19 nM and 38.1 nM, respectively.
As to `Cc1c(F)c(N)cc(-c2nc3c4c(nc(OC[C@@]56CCCN5CCN(C)C6=O)nc4c2F)N2C[C@H]4CC[C@H](N4)[C@H]2[C@H](C)O3)c1C(F)(F)F` (single isomer, unassigned) [137 (isomer 1)], the IC50 is 2.31 nM on KRAS G12D and 283 nM at KRAS WT.
The matching figures for `Cc1c(F)c(N)cc(-c2nc3c4c(nc(OC[C@]56CCCN5C[C@H](F)[C@@H]6F)nc4c2F)N2C[C@H]4CC[C@H](N4)[C@H]2[C@H](C)O3)c1C(F)(F)F` (single isomer, unassigned) [143 (isomer 1)]: 0.22 nM and 28.1 nM.
Consider `Cc1c(F)c(N)cc(-c2nc3c4c(nc(OC[C@@]5(CC(F)F)CCCN5C)nc4c2F)N2C[C@H]4CC[C@H](N4)[C@H]2[C@H](C)O3)c1C(F)(F)F` (single isomer, unassigned) [150 (isomer 1)], for which the 50% inhibitory concentration (IC50) on KRAS G12D turned out to be 0.18 nM; at KRAS WT, 27.5 nM.
The matching figures for `Cc1c(F)c(N)cc(-c2nc3c4c(nc(OC[C@]5(CC(F)F)CCCN5C)nc4c2F)N2C[C@H]4CC[C@H](N4)[C@H]2[C@H](C)O3)c1C(F)(F)F` (single isomer, unassigned) [150 (isomer 2)]: 0.25 nM and 64.5 nM.
For `Cc1c(F)c(N)cc(-c2nc3c4c(nc(OC[C@@H]5CC[C@H]6C[C@@H](F)CN56)nc4c2F)N2C[C@H]4CC[C@H](N4)[C@H]2[C@H](C)O3)c1C(F)(F)F` (single isomer, unassigned) [152 (isomer 1)], in that order: 0.1 nM and 15.7 nM.
The matching figures for `Cc1c(F)c(N)cc(-c2nc3c4c(nc(OC[C@@H]5CC[C@@H]6C[C@@H](F)CN65)nc4c2F)N2C[C@H]4CC[C@H](N4)[C@H]2[C@H](C)O3)c1C(F)(F)F` (single isomer, unassigned) [152 (isomer 2)]: 3.23 nM and 526 nM.
As to `C=C1CN2CCC[C@@]2(COc2nc3c4c(nc(-c5cc(N)c(F)c(C)c5C(F)(F)F)c(F)c4n2)O[C@@H](C)[C@@H]2[C@@H]4CC[C@H](CN32)N4)C1` [Compound 57, 2-Fluoro-5-((5S,5aS,6S,9R)-1-fluoro-5-methyl-12-(((S)-2-methylenetetrahydro-1H-pyrrolizin-7a(5H)-yl)methoxy)-5a,6,7,8,9,10-hexahydro-5H-4-oxa-3,10a,11,13,14-pentaaza-6,9-methanonaphtho[1,8-ab]heptalen-2-yl)-3-methyl-4-(trifluoromethyl) aniline], the IC50 at KRAS G12D came out at 0.16 nM; at KRAS WT, 0.633 nM.
For `Cc1c(F)c(N)cc(-c2nc3c4c(nc(OC[C@@]56CCCN5C[C@H](F)C6)nc4c2F)N2C[C@H]4CC[C@H](N4)[C@H]2[C@H](C)O3)c1C=O` [Compound 59, 4-Amino-3-fluoro-6-((5S,5aS,6S,9R)-1-fluoro-12-(((2R,7aS)-2-fluorotetrahydro-1H-pyrrolizin-7a(5H)-yl)methoxy)-5-methyl-5a,6,7,8,9,10-hexahydro-5H-4-oxa-3,10a,11,13,14-pentaaza-6,9-methanonaphtho[1,8-ab]heptalen-2-yl)-2-methylbenzaldehyde], the values for the half-maximal inhibitory concentration (IC50) at KRAS G12D and at KRAS WT were 0.31 nM and 51.4 nM, respectively.
For `Cc1cc(N)cc(-c2nc3c4c(nc(OC[C@]56CCN5CC(F)(F)C6)nc4c2F)N2C[C@H]4CC[C@H](N4)[C@H]2[C@H](C)O3)c1C(F)(F)F` [Compound 60, 3-((5S,5aS,6S,9R)-12-(((R)-3,3-Difluoro-1-azabicyclo[3.2.0]heptan-5-yl)methoxy)-1-fluoro-5-methyl-5a,6,7,8,9,10-hexahydro-5H-4-oxa-3,10a,11,13,14-pentaaza-6,9-methanonaphtho[1,8-ab]heptalen-2-yl)-5-methyl-4-(trifluoromethyl)aniline], in that order: 0.18 nM and 4.55 nM.
For `Cc1c(F)c(N)cc(-c2nc3c4c(nc(OC[C@@]56CCCN5C[C@H](F)C6)nc4c2F)N2C[C@H]4CC[C@H](N4)[C@H]2CO3)c1C(F)(F)F` [Compound 61, 2-Fluoro-5-((5aS,6S,9R)-1-fluoro-12-(((2R,7aS)-2-fluorotetrahydro-1H-pyrrolizin-7a(5H)-yl)methoxy)-5a,6,7,8,9,10-hexahydro-5H-4-oxa-3,10a,11,13,14-pentaaza-6,9-methanonaphtho[1,8-ab]heptalen-2-yl)-3-methyl-4-(trifluoromethyl)aniline], in that order: 0.21 nM and 30.5 nM.
Take `Cc1c(F)c(N)cc(-c2nc3c4c(nc(OC[C@@]56CCCN5CC5(CC5(F)F)C6)nc4c2F)N2C[C@H]4CC[C@H](N4)[C@H]2[C@H](C)O3)c1C(F)(F)F` (stereo partly drawn) [Compound 62, 5-((5S,5aS,6S,9R)-12-(((7a'S)-2,2-Difluorodihydro-1′H,3′H-spiro[cyclopropane-1,2′-pyrrolizin]-7a′(5′H)-yl)methoxy)-1-fluoro-5-methyl-5a,6,7,8,9,10-hexahydro-5H-4-oxa-3,10a,11,13,14-pentaaza[6,9]methanonaphtho[1,8-ab]heptalen-2-yl)-2-fluoro-3-methyl-4-(trifluoromethyl)aniline]: the IC50 at KRAS G12D is 0.083 nM; at KRAS WT, 0.29 nM.
The matching figures for `Cc1c(F)c(N)cc(-c2nc3c4c(nc(OC[C@@]56CCCN5C/C(=C\F)C6)nc4c2F)N2C[C@H]4CC[C@H](N4)[C@H]2[C@H](C)O3)c1C(F)(F)F` [Compound 64, 2-fluoro-5-((5S,5aS,6S,9R)-1-fluoro-12-(((S,Z)-2-(fluoromethylene)tetrahydro-1H-pyrrolizin-7a(5H)-yl)methoxy)-5-methyl-5a,6,7,8,9,10-hexahydro-5H-4-oxa-3,10a,11,13,14-pentaaza-6,9-methanonaphtho[1,8-ab]heptalen-2-yl)-3-methyl-4-(trifluoromethyl)aniline]: 0.12 nM and 0.738 nM.
The matching figures for `Cc1c(F)c(N)cc(-c2nc3c4c(nc(OC[C@@H]5CC(F)(F)CN5C)nc4c2F)N2C[C@H]4CC[C@H](N4)[C@H]2[C@H](C)O3)c1C(F)(F)F` [Compound 65, 5-((5S,5aS,6S,9R)-12-(((S)-4,4-Difluoro-1-methylpyrrolidin-2-yl)methoxy)-1-fluoro-5-methyl-5a,6,7,8,9,10-hexahydro-5H-4-oxa-3,10a,11,13,14-pentaaza-6,9-methanonaphtho[1,8-ab]heptalen-2-yl)-2-fluoro-3-methyl-4-(trifluoromethyl)aniline]: 1.72 nM and 377 nM.
The matching figures for `Cc1c(F)c(N)cc(-c2nc3c4c(nc(OC[C@H]5CC(F)(F)CN5C)nc4c2F)N2C[C@H]4CC[C@H](N4)[C@H]2[C@H](C)O3)c1C(F)(F)F` [Compound 66, 5-((5S,5aS,6S,9R)-12-(((R)-4,4-difluoro-1-methylpyrrolidin-2-yl)methoxy)-1-fluoro-5-methyl-5a,6,7,8,9,10-hexahydro-5H-4-oxa-3,10a,11,13,14-pentaaza-6,9-methanonaphtho[1,8-ab]heptalen-2-yl)-2-fluoro-3-methyl-4-(trifluoromethyl)aniline]: 2.29 nM and 274 nM.
For the molecule `Cc1cc(N)cc(-c2nc3c4c(nc(OC[C@@H]5CC[C@H]6COCCN65)nc4c2F)N2C[C@H]4CC[C@H](N4)[C@H]2[C@H](C)O3)c1C(F)(F)F` [Compound 67, 3-((5S,5aS,6S,9R)-1-Fuoro-1-(((6S,8aS)-hexahydro-1H-pyrrolo[2,1-c][1,4]oxazin-6-yl)methoxy)-5-methyl-5a,6,7,8,9,10-hexahydro-5H-4-oxa-3,10a,11,13,14-pentaaza-6,9-methanonaphtho[1,8-ab]heptalen-2-yl)-5-methyl-4-(trifluoromethyl)aniline], the IC50 came to 0.17 nM on KRAS G12D and 7.53 nM on KRAS WT.
